pIC50: −log10 of the molar value.
Target: Activated CDC42 kinase 1 (Homo sapiens, UniProt Q07912)
Sequence (Q07912 whole entry): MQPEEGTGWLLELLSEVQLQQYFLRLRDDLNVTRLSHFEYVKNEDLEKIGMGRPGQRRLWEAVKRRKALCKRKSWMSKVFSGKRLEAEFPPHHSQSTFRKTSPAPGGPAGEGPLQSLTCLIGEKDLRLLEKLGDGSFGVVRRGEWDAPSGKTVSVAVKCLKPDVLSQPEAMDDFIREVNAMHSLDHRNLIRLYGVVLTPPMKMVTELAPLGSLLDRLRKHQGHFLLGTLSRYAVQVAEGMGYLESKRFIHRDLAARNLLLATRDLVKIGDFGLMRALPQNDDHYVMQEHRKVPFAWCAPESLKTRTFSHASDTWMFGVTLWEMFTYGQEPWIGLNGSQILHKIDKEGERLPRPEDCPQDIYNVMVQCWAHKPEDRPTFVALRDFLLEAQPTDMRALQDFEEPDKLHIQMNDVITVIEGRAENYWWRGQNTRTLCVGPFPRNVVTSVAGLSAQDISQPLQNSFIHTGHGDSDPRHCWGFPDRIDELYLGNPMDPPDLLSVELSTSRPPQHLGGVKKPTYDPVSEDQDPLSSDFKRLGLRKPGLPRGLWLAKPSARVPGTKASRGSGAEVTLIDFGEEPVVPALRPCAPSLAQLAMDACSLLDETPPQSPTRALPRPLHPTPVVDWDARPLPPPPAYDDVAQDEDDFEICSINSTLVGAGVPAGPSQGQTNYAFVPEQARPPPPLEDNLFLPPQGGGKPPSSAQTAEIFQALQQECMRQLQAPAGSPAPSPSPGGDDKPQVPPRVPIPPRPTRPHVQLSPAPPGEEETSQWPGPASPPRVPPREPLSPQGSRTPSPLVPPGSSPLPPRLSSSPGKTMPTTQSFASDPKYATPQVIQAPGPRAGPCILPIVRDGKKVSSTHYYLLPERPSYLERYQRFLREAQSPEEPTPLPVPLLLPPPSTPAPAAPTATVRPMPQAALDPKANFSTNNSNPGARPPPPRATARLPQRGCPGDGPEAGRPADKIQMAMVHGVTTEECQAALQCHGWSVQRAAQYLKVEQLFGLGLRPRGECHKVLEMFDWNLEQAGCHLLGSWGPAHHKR

**Q.** `COc1cc(N2CCN(C)CC2)ccc1Nc1ncc(Cl)c(Nc2ccc(NS(C)(=O)=O)cc2)n1` [US20240010634, Example 33] was tested. Which pIC50 did it give?
**A.** 7.59

— BindingDB's records for patent US20240010634 (H. Lee Moffitt Cancer Center and Research Institute, 2024)
